Source: PubChem BioAssay AID258 (DTP/NCI, 2004)
Values joined by “and” are separate entries in the source; they are usually repeats but may differ in a detail not shown here. Identical values can stand only once. Toxic doses and inconclusive results are not listed.

System: CD2F1 mice, L1210 leukemia sc, survival T/C
Assay: NCI In Vivo Anticancer Drug Screen. Data for tumor model L1210 Leukemia (subcutaneous) in CD2F1 (CDF1) mice
Details: endpoint: median survival time, higher = longer survival
Protocol: The antitumor activity of compounds was measured in mice bearing transplantable tumors. Survival or tumor size were measured and the results are expressed as the measurement made in the treated group (T) divided by the measurement made in the vehicle treated control group (C). The tumor model used in this assay is L1210 Leukemia (subcutaneous) in CD2F1 (CDF1) mice

[1] = dose: 23.0 mg/kg/injection, schedule: Q01DX Z (sc), vehicle: water

Structure (SMILES): CN(CCN(C)C(=O)CCOS(C)(=O)=O)C(=O)CCOS(C)(=O)=O
- T/C (dose: 25.0 mg/kg/injection, schedule: Q01DX009 (ip), vehicle: saline): 106 % of control and 107 % of control
- T/C (dose: 50.0 mg/kg/injection, schedule: Q01DX009 (ip), vehicle: saline): 123 % of control
- T/C (dose: 100.0 mg/kg/injection, schedule: Q01DX009 (ip), vehicle: saline): 171 % of control
- T/C (dose: 200.0 mg/kg/injection, schedule: Q01DX009 (ip), vehicle: saline): 103 % of control and 94 % of control

Structure (SMILES): Nc1cc(=O)[nH][nH]1
- T/C (dose: 108.0 mg/kg/injection, schedule: Q01DX Z (sc), vehicle: saline): 105 % of control
- T/C (dose: 180.0 mg/kg/injection, schedule: Q01DX Z (sc), vehicle: saline): 100 % of control
- T/C (dose: 300.0 mg/kg/injection, schedule: Q01DX Z (sc), vehicle: saline): 100 % of control
- T/C (dose: 500.0 mg/kg/injection, schedule: Q01DX Z (sc), vehicle: saline): 100 % of control
- T/C (dose: 833.0 mg/kg/injection, schedule: Q01DX Z (sc), vehicle: saline): 100 % of control

Structure (SMILES): ONc1nc(NO)c2[nH]cnc2n1
- T/C (dose: 8.0 mg/kg/injection, schedule: Q01DX Z (sc), vehicle: steriod suspending solution): 100 % of control
- T/C (dose: 32.0 mg/kg/injection, schedule: Q01DX Z (sc), vehicle: steriod suspending solution): 175 % of control
- T/C (dose: 64.0 mg/kg/injection, schedule: Q01DX Z (sc), vehicle: steriod suspending solution): 200 % of control

Structure (SMILES): CCN(CC)CCNc1ccc(CO)c2sc3ccccc3c(=O)c12
- T/C (dose: 10.0 mg/kg/injection, schedule: Q01DX009 (ip), vehicle: water): 103 % of control and 110 % of control and 116 % of control
- T/C (dose: 20.0 mg/kg/injection, schedule: Q01DX009 (ip), vehicle: water): 113 % of control and 115 % of control and 121 % of control
- T/C (dose: 40.0 mg/kg/injection, schedule: Q01DX009 (ip), vehicle: water): 150 % of control
- T/C (dose: 80.0 mg/kg/injection, schedule: Q01DX009 (ip), vehicle: water): 100 % of control
- T/C (dose: 160.0 mg/kg/injection, schedule: Q01DX009 (ip), vehicle: water): 103 % of control and 86 % of control and 94 % of control

Structure (SMILES): N#Cc1c(-c2ccc(F)cc2)c(-c2ccc(F)cc2)nn(CCO)c1=O
- T/C (dose: 108.0 mg/kg/injection, schedule: Q01DX005 (ip), vehicle: distilled water + Tween-80 + alcohol): 109 % of control
- T/C (dose: 180.0 mg/kg/injection, schedule: Q01DX005 (ip), vehicle: distilled water + Tween-80 + alcohol): 113 % of control
- T/C (dose: 300.0 mg/kg/injection, schedule: Q01DX005 (ip), vehicle: distilled water + Tween-80 + alcohol): 113 % of control
- T/C (dose: 833.0 mg/kg/injection, schedule: Q01DX005 (ip), vehicle: distilled water + Tween-80 + alcohol): 178 % of control

Structure (SMILES): Nc1cc(C(=O)Nc2ccc(C3=NCCN3)cc2)ccc1C(=O)Nc1ccc(C2=NCCN2)cc1
- T/C (dose: 3.0 mg/kg/injection, schedule: Q01DX Z (sc), vehicle: methylcellulose (MC)): 111 % of control
- T/C (dose: 3.0 mg/kg/injection, schedule: Q01DX Z (sc), vehicle: water): 116 % of control
- T/C (dose: 5.0 mg/kg/injection, schedule: Q01DX Z (sc), vehicle: methylcellulose (MC)): 200 % of control
- T/C (dose: 5.0 mg/kg/injection, schedule: Q01DX Z (sc), vehicle: water): 266 % of control
- T/C (dose: 8.4 mg/kg/injection, schedule: Q01DX Z (sc), vehicle: methylcellulose (MC)): 255 % of control
- T/C (dose: 8.4 mg/kg/injection, schedule: Q01DX Z (sc), vehicle: water): 294 % of control
- T/C (dose: 14.0 mg/kg/injection, schedule: Q01DX Z (sc), vehicle: methylcellulose (MC)): 200 % of control
- T/C (dose: 14.0 mg/kg/injection, schedule: Q01DX Z (sc), vehicle: water): 266 % of control
- T/C (dose: 23.0 mg/kg/injection, schedule: Q01DX Z (sc), vehicle: methylcellulose (MC)): 161 % of control
- T/C [1]: 288 % of control
- T/C (dose: 39.0 mg/kg/injection, schedule: Q01DX Z (sc), vehicle: methylcellulose (MC)): 155 % of control
- T/C (dose: 39.0 mg/kg/injection, schedule: Q01DX Z (sc), vehicle: water): 211 % of control
- T/C (dose: 65.0 mg/kg/injection, schedule: Q01DX Z (sc), vehicle: methylcellulose (MC)): 155 % of control
- T/C (dose: 65.0 mg/kg/injection, schedule: Q01DX Z (sc), vehicle: water): 200 % of control

Structure (SMILES): COc1cccc2c1C(=O)c1c(O)c3c(c(O)c1C2=O)C[C@@](O)(C(C)=O)C[C@@H]3OC1CC(N)C(O)C(C)O1 (some centres undefined)
- T/C (dose: 0.25 mg/kg/injection, schedule: Q01DX009 (ip), vehicle: saline): 97 % of control and 100 % of control
- T/C (dose: 0.25 mg/kg/injection, schedule: Q01DX009 (sc), vehicle: saline): 98 % of control
- T/C (dose: 0.5 mg/kg/injection, schedule: Q01DX009 (ip), vehicle: saline): 96 % of control and 98 % of control
- T/C (dose: 0.5 mg/kg/injection, schedule: Q01DX009 (sc), vehicle: saline): 104 % of control
- T/C (dose: 1.0 mg/kg/injection, schedule: Q01DX009 (ip), vehicle: saline): 101 % of control and 96 % of control (2×)
- T/C (dose: 1.0 mg/kg/injection, schedule: Q01DX009 (sc), vehicle: saline): 107 % of control
- T/C (dose: 1.5 mg/kg/injection, schedule: Q01DX009 (ip), vehicle: saline): 100 % of control
- T/C (dose: 2.0 mg/kg/injection, schedule: Q01DX009 (ip), vehicle: saline): 101 % of control and 102 % of control and 98 % of control
- T/C (dose: 2.0 mg/kg/injection, schedule: Q01DX009 (sc), vehicle: saline): 109 % of control
- T/C (dose: 3.0 mg/kg/injection, schedule: Q01DX009 (ip), vehicle: saline): 97 % of control
- T/C (dose: 4.0 mg/kg/injection, schedule: Q01DX009 (ip), vehicle: saline): 98 % of control
- T/C (dose: 4.0 mg/kg/injection, schedule: Q01DX009 (sc), vehicle: saline): 120 % of control
- T/C (dose: 16.0 mg/kg/injection, schedule: Q01DX009 (sc), vehicle: saline): 118 % of control
- T/C [1]: 120 % of control
